Laboratory results as given in article PMC10571751, “Polyarginine Cell-Penetrating Peptides Bind and Inhibit SERCA2” (Cells, 2023).
Where no end group is shown, it is not given here. The star is where a group is joined. Biotin = O=C1N[C@H]2[C@H](CS[C@H]2CCCCC(=O)*)N1

Assays:
[1] = test system: rat SERCA2b; test: Oxalate-supported Ca2+ uptake in homogenates of HEK293 cells transfected with SERCA2b; assay type: biochemical; settings: for Ca2+ uptake, SERCA2b-transfected cells, versus untreated: nruns Ctr, Arg9, Arg11 = 12, 12, 12
Method: (§1) 10–20 µL of freshly thawed and vortexed homogenate was added to 250 µL of “assay” buffer, containing (in mmol/L) 165 KCl, 22 Hepes, 7.5 oxalate, 11 NaN3, 0.0055 TPEN, 4.5 MgCl2, 9 Tris HCl, and 0.002 Fura-2 salt (pH 7.0, 37 °C). Each CPP was added to attain a final concentration of 40 µmol/L and incubated for 5 min at 37 °C prior to experiments.
(§2) Ca^2+ fluxes were monitored as Fura-2 fluorescence ratio (340 nm/390 nm) using a Hidex Sense Multimodal Microplate Reader (Kem-En-Tec Nordic AS, Uppsala, Sweden). Ca^2+ uptake by the vesicles was initiated by the addition of Na4ATP (2.2 mmol/L) and blocked by the application of thapsigargin (1.5 µmol/L) after 12 min [16]. SR Ca^2+ content, i.e., the “releasable Ca^2+” was estimated by adding the ryanodine receptor opener 4-Chloro-m-cresol (CmC, 5.5 mmol/L). The fluorescence ratio was calibrated to [Ca^2+] using the following equation: [Ca^2+] = Kd × ((R − Rmin)/(Rmax − R)) × (Sf2/Sb2), where R is the 340 nm/390 nm fluorescence ratio, and Kd is the dissociation constant of Fura-2 and Ca^2+ (224 nmol/L). Rmin is the fluorescence ratio at very low [Ca^2+] and Rmax is the ratio at saturating [Ca^2+], obtained by sequentially adding 3.3 mmol/L EGTA and 4.8 mmol/L CaCl2 to the well at the end of each recording. Sf2/Sb2 is the ratio of measured fluorescence intensity at 390 nm when Fura-2 is Ca^2+-free (3.3 mmol/L EGTA) or Ca^2+-bound (4.8 mmol/L CaCl2).
(§3) Ca^2+ recordings were smoothed using TableCurve 2D (V 5.01, Systat Software Inc., Palo Alto, CA, USA) prior to analysis. After the addition of Na4ATP, the rate constant for Ca^2+ uptake (k) was calculated by fitting the uptake curve to Ca^2+ = Ca^2+0 + ae^−t×k (Sigmaplot V14.0, Systat Software Inc.). Ca^2+ leak from the vesicles was calculated as the linear rise (slope) of the Ca^2+ signal after blockade of SERCA by thapsigargin. Leak measurements were normalized to SR content, determined as the peak [Ca^2+] after addition of CmC. […]

[2] = test system: SERCA (rat soleus homogenates; SERCA2a); test: Oxalate-supported Ca2+ uptake, leak and releasable Ca2+ in rat soleus homogenates; assay type: biochemical, rat (Wistar); settings: 40 µmol/L CPP without cargo, 5 min, 37 °C, pH 7.0; nruns Ctr, TAT, Arg9, Arg11 = 6, 5, 6, 6
Description: (§4) Ca^2+ handling was also examined in homogenates prepared from mouse left ventricle, rat soleus, and rat extensor digitorum longus (EDL) muscles using methods described by O’Brien and modified by Li et al.. Freshly excised left ventricles and muscles were weighed and homogenized in ice cold homogenization buffer (1:10 wet weight/vol, pH 7.9) containing (in mmol/L) 300 sucrose, 5 NaN3, 1 EDTA, 40 L-histidine, 40 Tris HCl, and protease inhibitors (Complete EDTA-free No 05056489001, Roche, Mannheim, Germany). Homogenization was performed with a Polytron 1200 (Kinematica AG, Luzern, Switzerland) at 25,000 rpm for 3 × 20 s, with a 20 s break between bursts. Homogenates were then aliquoted, frozen in liquid N2, and stored at −80 °C until use.
(§5) 10–20 µL of freshly thawed and vortexed homogenate was added to 250 µL of “assay” buffer, containing (in mmol/L) 165 KCl, 22 Hepes, 7.5 oxalate, 11 NaN3, 0.0055 TPEN, 4.5 MgCl2, 9 Tris HCl, and 0.002 Fura-2 salt (pH 7.0, 37 °C). […]
(§6) Ca^2+ fluxes were monitored as Fura-2 fluorescence ratio (340 nm/390 nm) using a Hidex Sense Multimodal Microplate Reader (Kem-En-Tec Nordic AS, Uppsala, Sweden). […] The fluorescence ratio was calibrated to [Ca^2+] using the following equation: [Ca^2+] = Kd × ((R − Rmin)/(Rmax − R)) × (Sf2/Sb2), where R is the 340 nm/390 nm fluorescence ratio, and Kd is the dissociation constant of Fura-2 and Ca^2+ (224 nmol/L). Rmin is the fluorescence ratio at very low [Ca^2+] and Rmax is the ratio at saturating [Ca^2+], obtained by sequentially adding 3.3 mmol/L EGTA and 4.8 mmol/L CaCl2 to the well at the end of each recording. Sf2/Sb2 is the ratio of measured fluorescence intensity at 390 nm when Fura-2 is Ca^2+-free (3.3 mmol/L EGTA) or Ca^2+-bound (4.8 mmol/L CaCl2).
(§7) Ca^2+ recordings were smoothed using TableCurve 2D (V 5.01, Systat Software Inc., Palo Alto, CA, USA) prior to analysis. After the addition of Na4ATP, the rate constant for Ca^2+ uptake (k) was calculated by fitting the uptake curve to Ca^2+ = Ca^2+0 + ae^−t×k (Sigmaplot V14.0, Systat Software Inc.). […]

[3] = test system: rat left ventricular cardiomyocytes; test: Field-stimulated whole-cell Ca2+ transients in isolated rat cardiomyocytes; assay type: cell-based, rat (Wistar); settings: versus untreated Ctr, 5 µmol/L, 1 h preincubation, 1 Hz, 37 °C
Description: For single cell experiments, rat left ventricular cardiomyocytes were isolated as described previously. In brief, rats were anaesthetized by inhalation of a mixture of 5% isoflurane and 95% O2. Hearts were then rapidly excised and mounted via the aorta on a Langendorff apparatus to enable retrograde perfusion with buffer containing collagenase Type II (Worthington Biochemical Corporation, Lakewood, NJ, USA). Following digestion, the heart was cut down, diced, and agitated, and isolated cardiomyocytes were then filtered, washed, and sedimented. Cells were stored in a solution containing (in mmol/L) 130 NaCl, 5.4 KCl, 25 HEPES, 0.5 MgCl2, 0.4 NaH2PO4, 22 glucose, 0.2 CaCl2 (pH 7.40, 22 °C) until use, within 6 h of isolation.
Prior to experiments, cardiomyocytes were preincubated for 1 h with 5 µmol/L of the individual CPPs added to the cell storage solution. During the last 10 min of incubation, cells were additionally loaded with fluo-4 AM (5 µmol/L, Thermo Fisher Scientific, Waltham, MA, USA) for Ca^2+ imaging. The cells were then plated on the stage of an inverted microscope and perfused with HEPES-Tyrode solution containing (in mmol/L) 140 NaCl, 0.5 MgCl2, 5.0 HEPES, 5.5 glucose, 0.4 NaH2PO4, 5.4 KCl, and 1.8 CaCl2 at pH 7.4, 37 °C. Whole-cell Ca^2+ transients were recorded by wide-field photometry, as described previously, using a D-104 microscope photometer and photomultiplier tube (Horiba Ltd., Kyoto, Japan). During field stimulation at 1 Hz, fluorescence was excited by a 475 nm light-emitting diode, and emission was collected at >510 nm.
Ca^2+ signals were analysed by first subtracting background fluorescence values from the cellular recordings. Ca^2+ transient magnitude was calculated as peak fluorescence divided by resting fluorescence (F/F0). The decay time of Ca^2+ transients was assessed using a monoexponential fit of the declining phase of the Ca^2+ transient to calculate tau (s), using Clampfit 10.4 software (Molecular Devices LLC, Sunnyvale, CA, USA).

[4] = test system: SERCA (SR vesicles from mouse left ventricle; SERCA2a); test: Oxalate-supported SR Ca2+ uptake and leak in mouse left ventricular homogenates (wild-type); assay type: biochemical, mouse (C57BL/6NT); settings: 40 µmol/L CPP without cargo, 5 min, 37 °C, pH 7.0; uptake started with Na4ATP; Fura-2 340/390; nruns Ctr, TAT, Arg9, Arg11 = 69, 14, 23, 24
Description: as §4, §5, §6, §7

[5] = test system: rat SERCA1; test: Oxalate-supported Ca2+ uptake in homogenates of HEK293 cells transfected with SERCA1; assay type: biochemical; settings: nruns Ctr, Arg9, Arg11 = 4, 5, 5
Method: as §1
(§8) Ca^2+ fluxes were monitored as Fura-2 fluorescence ratio (340 nm/390 nm) using a Hidex Sense Multimodal Microplate Reader (Kem-En-Tec Nordic AS, Uppsala, Sweden). Ca^2+ uptake by the vesicles was initiated by the addition of Na4ATP (2.2 mmol/L) and blocked by the application of thapsigargin (1.5 µmol/L) after 12 min [16]. […] The fluorescence ratio was calibrated to [Ca^2+] using the following equation: [Ca^2+] = Kd × ((R − Rmin)/(Rmax − R)) × (Sf2/Sb2), where R is the 340 nm/390 nm fluorescence ratio, and Kd is the dissociation constant of Fura-2 and Ca^2+ (224 nmol/L). Rmin is the fluorescence ratio at very low [Ca^2+] and Rmax is the ratio at saturating [Ca^2+], obtained by sequentially adding 3.3 mmol/L EGTA and 4.8 mmol/L CaCl2 to the well at the end of each recording. Sf2/Sb2 is the ratio of measured fluorescence intensity at 390 nm when Fura-2 is Ca^2+-free (3.3 mmol/L EGTA) or Ca^2+-bound (4.8 mmol/L CaCl2). […]

[6] = test system: rat SERCA3; test: Oxalate-supported Ca2+ uptake in homogenates of HEK293 cells transfected with SERCA3; assay type: biochemical; settings: nruns Ctr, Arg9, Arg11 = 4, 5, 5
Method: as §1, §8

[7] = test system: rat SERCA2a; test: Oxalate-supported Ca2+ uptake in homogenates of HEK293 cells transfected with SERCA2a; assay type: biochemical; settings: for Ca2+ uptake, SERCA2a-transfected cells, versus untreated: nruns Ctr, Arg9, Arg11 = 12, 16, 16
Method: as §1, §2, §3

[8] = test system: SERCA (SR vesicles from left ventricle of PLB knockout mice); test: Oxalate-supported SR Ca2+ uptake and leak in left ventricular homogenates of phospholamban knockout mice; assay type: biochemical, mouse (phospholamban knockout); settings: 40 µmol/L CPP without cargo, 5 min, 37 °C, pH 7.0; nruns Ctr, TAT, Arg9, Arg11 = 58, 12, 17, 15
Description: as §4, §5, §6, §7

[9] = test system: SERCA (rat EDL homogenates; SERCA1); test: Oxalate-supported Ca2+ uptake, leak and releasable Ca2+ in rat EDL homogenates; assay type: biochemical, rat (Wistar); settings: 40 µmol/L, 5 min, 37 °C, pH 7.0; without (Figure 4B) and with cargo (Figure 4D)
Description: as §4, with “use. […]” for “use.”
as §6, with “Sf2/Sb2 is the ratio of measured fluorescence intensity at 390 nm when Fura-2 is Ca^2+-free (3.3 mmol/L EGTA) or Ca^2+-bound (4.8 mmol/L CaCl2).” left out

[10] = target: T1, 12xHis-SERCA2(111-253) (UniProt P16615 111-253); test: SPR; Biacore X100; biotinylated Arg11 immobilised on an SA chip at 744.3 RU; 12xHis-SERCA2(111-253) injected at 0.7–200 nM, 0.19–50 nM or 12.5–200 nM, 30 µL/minute for 180 s; dissociation 600 or 1000 s; 1 × Biacore running buffer; one-to-one Langmuir model; settings: both partners purified
T1 construct: also called recombinant SERCA2 polypeptide containing the A-domain; actuator domain of SERCA2; source: recombinant, generated by Genscript; dialysed into Biacore running buffer for SPR
T1 sequence (P16615 111-253): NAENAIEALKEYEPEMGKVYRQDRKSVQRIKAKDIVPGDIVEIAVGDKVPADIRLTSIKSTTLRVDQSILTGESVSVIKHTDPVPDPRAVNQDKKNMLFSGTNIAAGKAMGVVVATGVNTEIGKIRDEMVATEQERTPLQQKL

RRRRRRRRR [Arg9]
Ca2+ uptake, SERCA2b-transfected cells, versus untreated [1]: significantly slowed Ca^2+ uptake
Ca2+ uptake rate in soleus, effect versus untreated control [2]: lesser but statistically significant inhibition
effect on Ca2+ transient decay (tau), in words [3]: No such effects were noted
Ca2+ uptake rate, effect versus untreated control [4]: slowed Ca^2+ uptake, albeit to a lesser extent than Arg11
Ca2+ uptake rate, SERCA1-transfected cells, versus untreated [5]: Neither Arg9 nor Arg11 altered the Ca^2+ uptake rate
Ca2+ uptake rate, SERCA3-transfected cells, versus untreated [6]: Neither Arg9 nor Arg11 altered the Ca^2+ uptake rate
Ca2+ uptake, SERCA2a-transfected cells, versus untreated [7]: significantly slowed Ca^2+ uptake
Ca2+ uptake, PLB knockout, effect versus untreated control [8]: lesser but statistically significant inhibition

RRRRRRRRRRR [Arg11]
inhibition of Ca2+ uptake compared with Arg9, SERCA2b ([1]; comparison Arg11 versus Arg9): tended to be more marked than that induced by Arg9
Ca2+ uptake, SERCA2b-transfected cells, versus untreated [1]: significantly slowed Ca^2+ uptake
Ca2+ uptake rate in soleus, effect versus untreated control [2]: most marked effect
effect on Ca2+ transient decay (tau), in words [3]: slowing of Ca^2+ transient decay
increase in tau value for Ca2+ removal (Ca2+ transient decay) ([3]; p = 0.021, ncells Ctr 37, Arg11 31, 4 hearts): 14%
Ca2+ uptake rate, effect versus untreated control [4]: marked slowing of Ca^2+ uptake
Ca2+ uptake rate, SERCA1-transfected cells, versus untreated [5]: Neither Arg9 nor Arg11 altered the Ca^2+ uptake rate
Ca2+ uptake rate, SERCA3-transfected cells, versus untreated [6]: Neither Arg9 nor Arg11 altered the Ca^2+ uptake rate
inhibition of Ca2+ uptake compared with Arg9, SERCA2a ([7]; comparison Arg11 versus Arg9): tended to be more marked than that induced by Arg9
Ca2+ uptake, SERCA2a-transfected cells, versus untreated [7]: significantly slowed Ca^2+ uptake
Ca2+ uptake, PLB knockout, effect versus untreated control [8]: tending to cause the most marked inhibition of Ca^2+ uptake

RKKRRQRRR [TAT, reference compound]
Ca2+ uptake rate in EDL, effect versus untreated control [9]: did not observe inhibition of SERCA2 activity
Ca2+ uptake rate in soleus, effect versus untreated control [2]: did not alter the rate of Ca^2+ uptake
effect on Ca2+ transient decay (tau), in words [3]: No such effects were noted
Ca2+ uptake rate, effect versus untreated control [4]: no significant effect
Ca2+ uptake, PLB knockout, effect versus untreated control [8]: did not observe inhibition of SERCA2 activity

B1: biotin-Arg11 (peptide)
peptide: Biotin-RRRRRRRRRRR
notes: polyarginine cell-penetrating peptide of 11 arginines; Peptides were synthesized with or without the N-terminal biotin; ELISA and SPR used the biotinylated form; also called biotinylated Arg11; polyarginine CPP; source: synthetic peptide (GenScript Biotech Corp, >80% purity)
Kd [10]: 0.4 nM
koff [10]: 6.6e-05 s⁻¹
kon [10]: 210000 M⁻¹ s⁻¹
